According to patent US20240208898A1, “ENAMINE N-OXIDES: SYNTHESIS AND APPLICATION TO HYPOXIA-RESPONSIVE PRODRUGS AND IMAGING AGENTS” (DANA-FARBER CANCER INSTITUTE, INC., priority 2021, published 2024):

Tested on: BxPC-3 xenograft mouse model
Experiment: Near infrared imaging in live mice
Assay type: in vivo
Conditions: intraperitoneal 20 mg/kg
Protocol: All animal experiments were performed according to procedures and protocols approved by the Dana-Farber Cancer Institute Institutional Animal Care and Use Committee. Bx-PC3 cells were grown to confluency in antibiotic-free RPMI supplemented with 10% FBS, trypsinized, and washed three times with ice cold PBS (50 mL). Cells were resuspended in PBS at a concentration of 1.0×10^7 cells per 100 μL. 8-week old, female, homozygous NU/J mice (Jackson Laboratory) were subcutaneously injected with 1.0×10^7 Bx-PC3 cells over the right hind flank under isoflurane anesthesia. Experiments were performed when tumors reached 1000 mm^3 in size. Mice were intraperitoneally injected with a solution of Si700-enamine N-oxide probe 42 (20 mg/kg, 7.93 mM in 0.9% saline). Under isoflurane anesthesia, mice were then imaged with a Xenogen IVIS 100 fluorescence imager using an excitation of 675 nm and emission of 720 nm at various time points (0 hours (before treatment), 6 hours, 24 hours and 30 hours (after treatment)). Mice were then intraperitoneally injected with a solution of Si700-enamine N-oxide probe 42 (20 mg/kg, 7.93 mM in 0.9% saline) 30 hours post injection. After 16 hours, mice were intraperitoneally injected with a bolus of pimonidazole solution (200 μL, 25.8 mM pimonidazole in 0.9% saline). […]

C#CCN(CCCCCC(F)/C=C/[N+]([O-])(CC)CC)C(=O)c1ccc(C2=c3cc4c(cc3[Si](C)(C)c3cc5c(cc32)CCN5C)=[N+](C)CC4)c(C)c1 (stereo not shown) [probe 42, Si700-enamine N-oxide] was tested, and the “near-infrared fluorescence imaging: accumulation in the tumor” value was “preferential accumulation of enamine N-oxide probe 42 in the tumor”.
